Data from US10413504B2, “Intravaginal ring drug delivery system” (Merck Sharp & Dohme B.V., priority 2013, dated 2019).

Assay: ENG and E2 solubility, diffusion coefficient and permeability in EVA copolymers (two-layer polymer slab, fit with Fick's 2nd law)
Details: ENG
Description: For the determination of the solubility concentration and diffusion coefficient a method was developed. The method consists in preparing polymer slab composites with one layer highly loaded with active ingredient (60 wt %) on top of a layer of placebo polymer. The two layers were first pressed separately in a hot press and thereafter combined, also using the press, into a two layer structure. The diffusion of the active ingredient from the loaded layer through the placebo layer is measured in time, for the active ingredient/polymer combination adequate analysis method. Thereafter the experimental diffusion data is fitted with a mathematical model based on Fick's 2nd law of diffusion in one direction. The differential equation is solved using trigonometrical series with the solubility concentration and diffusion coefficient as only unknown variables.

## C#C[C@]1(O)CC[C@H]2[C@@H]3CCC4=CC(=O)CC[C@@H]4[C@H]3C(=C)C[C@@]21CC [ENG, etonogestrel]
VA % 9
  Cs (solubility in EVA copolymer): 0.4 mg/g
  D (diffusion coefficient in EVA copolymer): 2.29 ×10^−13 m^2/s
VA % 15
  Cs (solubility in EVA copolymer): 0.9 mg/g
  D (diffusion coefficient in EVA copolymer): 3.17 ×10^−13 m^2/s
VA % 28
  Cs (solubility in EVA copolymer): 3.22 mg/g
  D (diffusion coefficient in EVA copolymer): 4.80 ×10^−13 m^2/s
